In PubChem BioAssay (NCI):
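Assay format: 96-well plates, 48-hour exposure. TGI denotes the concentration required for complete inhibition of growth.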

Legend:
Experiment in all cases: NCI-60 cell line screen, 48 h
[1] = test system: HS 578T breast
[2] = test system: M14 melanoma
[3] = test system: MOLT-4 leukemia
[4] = test system: A549 NSCLC
[5] = test system: EKVX NSCLC
[6] = test system: OVCAR-5 ovarian
[7] = test system: OVCAR-3 ovarian
[8] = test system: NCI/ADR-RES ovarian
[9] = test system: KM12 colon
[10] = test system: SK-OV-3 ovarian
[11] = test system: SN12C renal
[12] = test system: HT29 colon
[13] = test system: MCF7 breast
[14] = test system: HCC-2998 colon
[15] = test system: SF-268 CNS
[16] = test system: HCT-15 colon
[17] = test system: UACC-62 melanoma
[18] = test system: A498 renal
[19] = test system: MDA-MB-435
[20] = test system: MDA-MB-231 breast
[21] = test system: HCT-116 colon
[22] = test system: SK-MEL-28 melanoma
[23] = test system: OVCAR-4 ovarian
[24] = test system: CAKI-1 renal
[25] = test system: COLO 205 colon
[26] = test system: HOP-62 NSCLC
[27] = test system: UACC-257 melanoma
[28] = test system: SR leukemia
[29] = test system: NCI-H226 lung
[30] = test system: UO-31 renal
[31] = test system: K-562 leukemia
[32] = test system: SNB-19 CNS
[33] = test system: PC-3 prostate
[34] = test system: DU-145 prostate
[35] = test system: IGROV1 ovarian
[36] = test system: SK-MEL-2 melanoma
[37] = test system: NCI-H23 lung
[38] = test system: BT-549 breast
[39] = test system: U251 CNS
[40] = test system: T-47D breast
[41] = test system: LOX IMVI melanoma
[42] = test system: NCI-H460 lung
[43] = test system: RPMI-8226 leukemia
[44] = test system: SK-MEL-5 melanoma
[45] = test system: SF-295 CNS
[46] = test system: 786-0 renal
[47] = test system: OVCAR-8 ovarian
[48] = test system: CCRF-CEM leukemia
[49] = test system: MDA-N
[50] = test system: SF-539 CNS
[51] = test system: HOP-92 NSCLC
[52] = test system: TK-10 renal
[53] = test system: HL-60(TB) leukemia
[54] = test system: ACHN renal
[55] = test system: SW-620 colon
[56] = test system: NCI-H522 lung
[57] = test system: MALME-3M melanoma
[58] = test system: SNB-75 CNS

## CCN1C(=O)c2ccccc2C1(O)c1ccc(Cl)cc1 (stereo unspecified)
[1]
  TGI: > 100 µM
[2]
  TGI: > 100 µM
[3]
  TGI: > 100 µM
[4]
  TGI: > 100 µM
[5]
  TGI: > 100 µM
[6]
  TGI: > 100 µM
[7]
  TGI: > 100 µM
[8]
  TGI: > 100 µM
[9]
  TGI: > 100 µM
[10]
  TGI: > 100 µM
[11]
  TGI: > 100 µM
[12]
  TGI: > 100 µM
[13]
  TGI: > 100 µM
[14]
  TGI: > 100 µM
[15]
  TGI: > 100 µM
[16]
  TGI: > 100 µM
[17]
  TGI: > 100 µM
[18]
  TGI: > 100 µM
[19]
  TGI: > 100 µM
[20]
  TGI: > 100 µM
[21]
  TGI: > 100 µM
[22]
  TGI: > 100 µM
[23]
  TGI: > 100 µM
[24]
  TGI: > 100 µM
[25]
  TGI: > 100 µM
[26]
  TGI: > 100 µM
[27]
  TGI: > 100 µM
[28]
  TGI: > 100 µM
[29]
  TGI: 74.3 µM
[30]
  TGI: > 100 µM
[31]
  TGI: > 100 µM
[32]
  TGI: > 100 µM
[33]
  TGI: 80.6 µM
[34]
  TGI: > 100 µM
[35]
  TGI: > 100 µM
[36]
  TGI: 83.6 µM
[37]
  TGI: > 100 µM
[38]
  TGI: > 100 µM
[39]
  TGI: > 100 µM
[40]
  TGI: > 100 µM
[41]
  TGI: > 100 µM
[42]
  TGI: > 100 µM
[43]
  TGI: > 100 µM
[44]
  TGI: > 100 µM
[45]
  TGI: 63.2 µM
[46]
  TGI: > 100 µM
[47]
  TGI: > 100 µM
[48]
  TGI: > 100 µM
[49]
  TGI: > 100 µM
[50]
  TGI: > 100 µM
[51]
  TGI: > 100 µM
[52]
  TGI: > 100 µM
[53]
  TGI: > 100 µM
[54]
  TGI: > 100 µM
[55]
  TGI: > 100 µM

## O=C1CSC(c2ccc(Cl)cc2)N1c1ccc(-c2ccc(-n3c(-c4ccccc4)nc4ccccc4c3=O)cc2)cc1 (stereo unspecified)
[1]
  TGI: > 100 µM
[2]
  TGI: > 100 µM
[3]
  TGI: 83.6 µM
[4]
  TGI: > 100 µM
[5]
  TGI: > 100 µM
[7]
  TGI: > 100 µM
[8]
  TGI: 82.5 µM
[9]
  TGI: > 100 µM
[10]
  TGI: > 100 µM
[11]
  TGI: > 100 µM
[12]
  TGI: 41.5 µM
[13]
  TGI: > 100 µM
[14]
  TGI: > 100 µM
[15]
  TGI: > 100 µM
[16]
  TGI: > 100 µM
[17]
  TGI: > 100 µM
[18]
  TGI: > 100 µM
[19]
  TGI: 71.3 µM
[20]
  TGI: > 100 µM
[21]
  TGI: > 100 µM
[22]
  TGI: > 100 µM
[23]
  TGI: 56.8 µM
[24]
  TGI: > 100 µM
[25]
  TGI: > 100 µM
[26]
  TGI: > 100 µM
[56]
  TGI: > 100 µM
[27]
  TGI: > 100 µM
[28]
  TGI: > 100 µM
[30]
  TGI: 59.5 µM
[31]
  TGI: > 100 µM
[32]
  TGI: > 100 µM
[33]
  TGI: > 100 µM
[34]
  TGI: > 100 µM
[35]
  TGI: > 100 µM
[36]
  TGI: > 100 µM
[37]
  TGI: > 100 µM
[38]
  TGI: > 100 µM
[39]
  TGI: 85.8 µM
[57]
  TGI: > 100 µM
[40]
  TGI: 52.1 µM
[41]
  TGI: 45.2 µM
[42]
  TGI: > 100 µM
[43]
  TGI: > 100 µM
[44]
  TGI: > 100 µM
[45]
  TGI: > 100 µM
[46]
  TGI: > 100 µM
[47]
  TGI: > 100 µM
[48]
  TGI: > 100 µM
[49]
  TGI: > 100 µM
[50]
  TGI: > 100 µM
[51]
  TGI: 97.9 µM
[52]
  TGI: > 100 µM
[58]
  TGI: 26.6 µM
[53]
  TGI: > 100 µM
[54]
  TGI: > 100 µM
[55]
  TGI: > 100 µM
